Measured values from article PMC10933344, “A lncRNA Dleu2-encoded peptide relieves autoimmunity by facilitating Smad3-mediated Treg induction” (EMBO Reports, 2024).

Test system: CD4+ T cells in CNS of EAE mice
Experiment: Flow cytometry of CNS T cells of treated EAE mice
Type: in vivo, mouse
Details: 100 μg i.v.
Protocol: Figure 5 Dleu2-17aa attenuates EAE by promoting Treg cells. (A) Schematic diagram of MOG-induced EAE and treatment strategies with Dleu2-17aa, scrPEP, and Glatiramer. Mice received 100 μg of Dleu2-17aa or scrPEP every 3 days via i.v. injection or 150 μg of Glatiramer every day for seven times via s.c. on days 9 to 15. (B) Clinical scores were examined daily from day 9 using a scoring system ranging from 0 (no sign) to 5 (complete paralysis or dead). The x-axis represents experimental days, and the y-axis represents symptom severity (n = 8–9). (C) Representative Luxol fast blue (LFB) and hematoxylin and eosin staining (H&E) staining sections for treated EAE spinal cord. Scale bars: 100 μm. (D) Histopathology scores of inflammations and demyelination in treated EAE mice spinal cord using a scoring system ranging from 0 (no inflammatory cells or demyelination) to 4 (extensive inflammatory cells infiltration or confluent foci of demyelination) (n = 5–8). (E) Representative dot plots (left panel) and frequency (right panel) of CD44^hiCD62L^lo activated T cells, Foxp3^+ Treg cells, IL-17A^+ Th17 cells, and IFN-γ^+ Th1 cells gated on CD4^+ T cells in the spleen 14 days post immunization of MOG (n = 3). (F) Representative dot plots and frequency of CD4^+, Foxp3^+ Treg cells, and IFN-γ^+ Th1 cells gated on CD4^+ T cells in the CNS 14 days post immunization of MOG (n = 3). Data information: n indicates biological replicate. Error bars are mean ± SEM; *P < 0.05, **P < 0.01, and ***P < 0.001, n.s. indicates no significant difference. Statistical analysis was by two-way ANOVA for (B) and two-tailed Student’s t-test for (D–F). Source data are available online for this figure. TEXT PRINTED IN THE PICTURE: (E) scrPEP: Spleen: CD62L-PE-DF594 / CD44-PE: 78.2; Spleen: Foxp3-PE / CD4-APC: 7.38; Spleen: IFN-γ-Percp-cy5.5 / Il-17A-FITC: 4.67; Spleen: IFN-γ-Percp-cy5.5 / Il-17A-FITC: 0.18; Spleen: IFN-γ-Percp-cy5.5 / Il-17A-FITC: 94.7; Spleen: IFN-γ-Percp-cy5.5 / Il-17A-FITC: 0.44 | (E) Dleu2-17aa: Spleen: CD62L-PE-DF594 / CD44-PE: 37.2; Spleen: Foxp3-PE / CD4-APC: 12.9; Spleen: IFN-γ-Percp-cy5.5 / Il-17A-FITC: 2.83; Spleen: IFN-γ-Percp-cy5.5 / Il-17A-FITC: 0.26; Spleen: IFN-γ-Percp-cy5.5 / Il-17A-FITC: 96.1; Spleen: IFN-γ-Percp-cy5.5 / Il-17A-FITC: 0.79 | (F) scrPEP: CNS: FSC / CD4-APC: 9.03; CNS: Foxp3-PE / CD4-APC: 8.47; CNS: IFN-γ-Percp-cy5.5 / Il-17A-FITC: 22.9; CNS: IFN-γ-Percp-cy5.5 / Il-17A-FITC: 2.00; CNS: IFN-γ-Percp-cy5.5 / Il-17A-FITC: 69.7; CNS: IFN-γ-Percp-cy5.5 / Il-17A-FITC: 5.44 | (F) Dleu2-17aa: CNS: FSC / CD4-APC: 3.33; CNS: Foxp3-PE / CD4-APC: 15.5; CNS: IFN-γ-Percp-cy5.5 / Il-17A-FITC: 13.9; CNS: IFN-γ-Percp-cy5.5 / Il-17A-FITC: 2.65; CNS: IFN-γ-Percp-cy5.5 / Il-17A-FITC: 77.7; CNS: IFN-γ-Percp-cy5.5 / Il-17A-FITC: 5.79 DOUBTS OF THE COPYIST ABOUT THIS PICTURE: Panels E and F: the gate and quadrant numbers in the dot plots are printed with no measure or unit; the tissue heading and the axis labels of each plot are written in front of them. For the quadrant plots the order is upper left, upper right, lower left, lower right. / Panels E and F: the gate numbers are in small print, so 3, 5, 6, 8 and 9 are best readings: E scrPEP 78.2, 7.38, 4.67, 0.18, 94.7; E Dleu2-17aa 37.2, 12.9, 2.83, 0.26, 96.1, 0.79; F scrPEP 9.03, 8.47, 22.9, 69.7, 5.44; F Dleu2-17aa 3.33, 15.5, 13.9, 2.65, 5.79.
For active EAE immunization, myelin oligodendrocyte glycoprotein peptide (MOGp35–55, […], GenScript) was emulsified in complete Freund adjuvant (Sigma-Aldrich). An equivalent of 300 μg MOG peptide was injected per mouse subcutaneously followed by 200 ng of pertussis toxin (Merck-Calbiochem) injection intravenously on day 0 and day 2 of immunization. […]

ARGPARRMRGGRRRRLR [scrPEP, scrambled control peptide of Dleu2-17aa]
CD4+ / Live Cells(%) (replicate 1): 9.03% | Foxp3+/ CD4+ Cells (%) (replicate 1): 8.94% | IFN-γ+/ CD4+ Cells(%) (replicate 1): 22.8% | CD4+ / Live Cells(%) (replicate 2): 10.1% | Foxp3+/ CD4+ Cells (%) (replicate 2): 9.11% | IFN-γ+/ CD4+ Cells(%) (replicate 2): 22.9% | CD4+ / Live Cells(%) (replicate 3): 9.74% | Foxp3+/ CD4+ Cells (%) (replicate 3): 8.47% | IFN-γ+/ CD4+ Cells(%) (replicate 3): 23.8%
